The record followed here is patent publication US11730817B2, “Pro-cyclic dinucleotides and pro-cyclic dinucleotide conjugates for cytokine induction” (INVIVOGEN, priority 2017, dated 2023).

Entries after “also recorded” stand apart in the source; their conditions may differ.

Series [1] deals with Type I IFNs. Put plainly: Whole-blood assay, type I IFN induction (HEK-Blue IFN-α/β-KO-STING readout). The series is classed as cell-based, human. Conditions: for induction of type I IFNs in whole-blood assay (comparison in words): healthy human donors, dose-response; for EC50: whole blood assay, type I IFN, read-out: EC50 (μM) IFN in WBA. The source says: Type I IFNs: HEK-Blue™ IFN-α/β-KO-STING: These cells, in which the STING gene has been inactivated, are derived from HEK293 cell line known as HEK-Blue™ IFN-α/β (InvivoGen catalog code: hkb-ifnab). HEK-Blue™ IFN-α/β cells enable detection of bioactive human type I IFNs through monitoring of activation of the […]. These cells were generated by stable transfection of HEK293 cells with the human STAT2 and IRF9 genes to obtain a fully active Type-I IFN signaling pathway. The other genes of the pathway (IFNAR1, IFNAR2, JAK1, TyK2 and STAT1) are naturally expressed in sufficient amounts. The cells were further transfected with a SEAP reporter gene under control of an IFNα/β-inducible ISG54 promoter. This promoter comprises five IFN-stimulated response elements (ISREs) fused to a minimal promoter of the human ISG54 gene, which is unresponsive to activators of the NF-κB or AP-1 pathways. Stimulation of HEK-Blue™ IFN-α/β cells with human IFN-α or IFN-β activates the JAK/STAT/ISGF3 pathway and subsequently induces production of SEAP. Production of type I IFNs in these cells is measured using QUANTI-Blue™.
Briefly, the samples were collected by venipuncture into sodium heparin tubes at the time of donation. The samples were analyzed for rhesus (Rh), blood group, hematocrit and serological status (AgHBS, HIV, HCV, HTLV, HBC, CMV, Syph). The tubes were picked up on the day of collection and subsequently tested (blood analysis, and treatment with test items) on the same day.
Each blood sample was diluted (1:2 [v/v]) in RPMI medium and aliquoted into 96-well plates (180-μL wells) containing either CDN (√10-fold serial dilution starting from 50 μM). The plates were incubated at 37° C. in a 5% CO2 incubator for 18 hours. Then, the supernatants were collected, transferred into the corresponding wells of round-bottom 96-well plates, and either stored at −80° C., or immediately tested in the appropriate reporter cell line.
A new 96-wells plate was prepared for each reporter cell lines tested, as follows: 10 μL of supernatant from the previous plate were added to the corresponding well in the new reporter cell plate. Then, a 190-μL aliquot of cells of the desired reporter cell line, previously harvested in medium containing heat-inactivated serum and counted, was added to each well (approximately 50,000 cells/well), and the plate was incubated for approximately 20 hours. The desired cytokine induction activity was determined using the QUANTI-Blue™ assay, as previously described. Briefly, 20 μL of supernatant from the previously incubated plate was transferred to the corresponding well of a new 96-well plate in which 180 μL of QUANTI-Blue™ reagent had previously been added.

Series [2] in a line: Lipid-based nanoparticle formation (PdI, Z Ave). The format is physicochemical. Conditions: for Z Ave (nm): lipid BAM-CDN particles; for PdI: polydispersity index of lipid BAM-CDN.
The target in series [3] is STING (Homo sapiens, UniProt Q86WV6, G230A/H232R/R293Q/R71H). Put plainly: ISG54 (IRF pathway) reporter assay in THP1-Dual cells. Conditions: for ISG activity compared with unmodified parental CDN: THP1-Dual cells.
The target in series [4] is T1, STING (Mus musculus, UniProt Q3TBT3).
T1 sequence (Q3TBT3 1-378): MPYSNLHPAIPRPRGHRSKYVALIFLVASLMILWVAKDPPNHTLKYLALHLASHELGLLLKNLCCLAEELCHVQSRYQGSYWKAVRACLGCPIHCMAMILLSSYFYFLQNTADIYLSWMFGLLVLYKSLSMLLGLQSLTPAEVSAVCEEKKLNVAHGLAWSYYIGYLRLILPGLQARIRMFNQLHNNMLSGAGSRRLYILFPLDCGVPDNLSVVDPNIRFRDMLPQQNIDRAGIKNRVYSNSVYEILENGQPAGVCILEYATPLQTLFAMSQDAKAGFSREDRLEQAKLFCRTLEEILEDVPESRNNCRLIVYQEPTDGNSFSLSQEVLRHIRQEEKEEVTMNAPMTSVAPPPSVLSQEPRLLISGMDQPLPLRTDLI
Kind of series: ISG reporter assay in RAW-Lucia ISG cells. On the technique in general: In a reporter assay the amount or activity of a reporter protein is the signal.

STING (Homo sapiens, UniProt Q86WV6, G230A/H232R/R293Q/R71H), sequence (Q86WV6 whole entry R71H/G230A/H232R/R293Q): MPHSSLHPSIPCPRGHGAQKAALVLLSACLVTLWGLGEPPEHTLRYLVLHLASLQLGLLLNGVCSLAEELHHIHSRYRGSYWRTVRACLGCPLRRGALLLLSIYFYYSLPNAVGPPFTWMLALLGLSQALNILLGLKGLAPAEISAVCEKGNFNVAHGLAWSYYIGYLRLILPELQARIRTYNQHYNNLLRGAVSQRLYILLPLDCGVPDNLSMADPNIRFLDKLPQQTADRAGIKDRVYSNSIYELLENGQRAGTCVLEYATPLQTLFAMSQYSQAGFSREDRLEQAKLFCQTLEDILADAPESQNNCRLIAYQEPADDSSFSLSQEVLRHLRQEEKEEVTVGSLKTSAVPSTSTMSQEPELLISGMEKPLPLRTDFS

`Nc1ncnc2c1ncn2[C@@H]1O[C@@H]2COP(=O)(S)O[C@H]3C[C@H](n4cnc5c(=O)[nH]cnc54)O[C@@H]3COP(=O)(S)O[C@H]2[C@H]1F` (some centres unmarked) [CL702, reference compound]: the “induction of type I IFNs in whole-blood assay (comparison in words)” value in series [1] was “superior induction of type I interferons compared to the reference compound 2′3′-cGAMP”.
`CC(C)[C@H](NC(=O)OC(C)(C)C)C(=O)N[C@@H](CCCNC(N)=O)C(=O)Nc1ccc(CSP2(=O)OC[C@H]3O[C@@H](n4cnc5c(=O)[nH]cnc54)C[C@@H]3OP(=O)(SCc3ccc(NC(=O)[C@H](CCCNC(N)=O)NC(=O)[C@@H](NC(=O)OC(C)(C)C)C(C)C)cc3)OC[C@H]3O[C@@H](n4cnc5c(N)ncnc54)[C@H](F)[C@@H]3O2)cc1` (some centres unmarked) [CL793]: the “induction of type I IFNs in whole-blood assay (comparison in words)” value in series [1] is “superior induction of type I interferons compared to the reference compound 2′3′-cGAMP”.
As for `CCCCCCCC(=O)N[C@H](C(=O)N[C@@H](C)C(=O)Nc1ccc(CSP2(=O)OC[C@H]3O[C@@H](n4cnc5c(N)ncnc54)[C@H](F)[C@@H]3OP(=O)(O)OC[C@H]3O[C@@H](n4cnc5c(O)ncnc54)C[C@@H]3O2)cc1)C(C)C` (some centres unmarked) [CL821], in series [2], the “Z Ave (nm)” value is on record as 54.9 nm and the PdI is reported as 0.27. In series [3] (FIG. 6, human or murine reporter cell), the “EC50 rank order (lipid chain length)” value is recorded as “EC50 (CL821=C8-CL797)<EC50 (CL820=C4-CL797)”. Besides, the concentration for a half-maximal effect (EC50) (usually the concentration that produces a half-maximal response) in series [1] was found to be 7.1 µM.
Consider `CCCCCCCCCCCCCC(=O)OC(CCCCCCCCCCC)CC(=O)N[C@H](C(=O)N[C@@H](C)C(=O)Nc1ccc(CSP2(=O)OC[C@H]3O[C@@H](n4cnc5c(N)ncnc54)[C@H](F)[C@@H]3OP(=O)(O)OC[C@H]3O[C@@H](n4cnc5c(O)ncnc54)C[C@@H]3O2)cc1)C(C)C` (some centres unmarked) [CL838], for which, in series [2], the “self-organization in lipid-based nanoparticles / particle size” value is on record as “can self-organize/assemble in lipid-based nanoparticles”, the “Z Ave (nm)” value is recorded as 91 nm and the PdI is recorded as 0.214. Further, in series [1], the EC50 came out at 0.009 µM.
`CCCCCCCC(=O)N[C@H](C(=O)N[C@@H](C)C(=O)Nc1ccc(CSP2(=O)OC[C@H]3O[C@@H](n4cnc5c(N)ncnc54)[C@H](F)[C@@H]3OP(=O)(S)OC[C@H]3O[C@@H](n4cnc5c(O)ncnc54)[C@H](F)[C@@H]3O2)cc1)C(C)C` (some centres unmarked) [CL840]: in series [2], the “Z Ave (nm)” value is 168.9 nm and the PdI is 0.08. In addition, the concentration giving a half-maximal response (EC50) in series [1] was 0.13 µM.
Taken in the same sequence, the figures for `CCCCCCCC(=O)N[C@H](C(=O)N[C@@H](C)C(=O)Nc1ccc(CSP2(=O)OC[C@H]3O[C@@H](n4cnc5c(N)ncnc54)[C@H](F)[C@@H]3OP(=O)(O)OC[C@H]3O[C@@H](n4cnc5c(O)ncnc54)[C@H](F)[C@@H]3O2)cc1)C(C)C` (some centres unmarked) [CL841] were 264.3 nm, 0.475 and 3.03 µM.
With `CCCCCCCC(=O)N[C@H](C(=O)N[C@@H](C)C(=O)Nc1ccc(CSP2(=O)OC[C@H]3O[C@@H](n4cnc5c(O)ncnc54)[C@H](F)[C@@H]3OP(=O)(SCc3ccc(NC(=O)[C@H](C)NC(=O)[C@@H](NC(=O)CCCCCCC)C(C)C)cc3)OC[C@H]3O[C@@H](n4cnc5c(N)ncnc54)[C@H](F)[C@@H]3O2)cc1)C(C)C` (some centres unmarked) [CL842], in series [2], the “self-organization in lipid-based nanoparticles / particle size” value is on record as “can self-organize/assemble in lipid-based nanoparticles”, the “Z Ave (nm)” value is 184 nm and the PdI turned out to be 0.086. For the same molecule, the EC50 in series [1] amounted to 1.4 µM.
Turning to `CCCCCCCCCCCCCCCC(=O)N[C@H](C(=O)N[C@@H](CCCNC(N)=O)C(=O)Nc1ccc(CSP2(=O)OC[C@H]3O[C@@H](n4cnc5c(N)ncnc54)[C@H](F)[C@@H]3OP(=O)(O)OC[C@H]3O[C@@H](n4cnc5c(O)ncnc54)C[C@@H]3O2)cc1)C(C)C` (some centres unmarked) [CL848], in series [2], the “Z Ave (nm)” value came out at 84.3 nm and the PdI was 0.18. In addition, in series [3], the “ISG activity compared with unmodified parental CDN” value is “higher ISG activity than the unmodified parental CDN”. Further, in series [4], the “ISG activity compared with unmodified parental CDN” value is “higher ISG activity than the unmodified parental CDN”. The EC50 in series [1] was determined as 0.11 µM.
Take `CCCCCCCCCCCCCCCC(=O)N[C@H](C(=O)N[C@@H](C)C(=O)Nc1ccc(CSP2(=O)OC[C@H]3O[C@@H](n4cnc5c(N)ncnc54)[C@H](F)[C@@H]3OP(=O)(O)OC[C@H]3O[C@@H](n4cnc5c(O)ncnc54)[C@H](F)[C@@H]3O2)cc1)C(C)C` (some centres unmarked) [CL849]: in series [2], the “Z Ave (nm)” value is given as 152.4 nm and the PdI is on record as 0.56. For the same molecule, the “ISG activity compared with unmodified parental CDN” value in series [3] was “higher ISG activity than the unmodified parental CDN”. For the same molecule, the “ISG activity compared with unmodified parental CDN” value in series [4] is recorded as “higher ISG activity than the unmodified parental CDN”.
Turning to `CCCCCCCCCCCCCCCC(=O)N[C@H](C(=O)N[C@@H](CCCNC(N)=O)C(=O)Nc1ccc(CSP2(=O)OC[C@H]3O[C@@H](n4cnc5c(N)ncnc54)[C@H](F)[C@@H]3OP(=O)(S)OC[C@H]3O[C@@H](n4cnc5c(O)ncnc54)[C@H](F)[C@@H]3O2)cc1)C(C)C` (some centres unmarked) [CL853], in series [2], the “Z Ave (nm)” value was 155.9 nm and the PdI is recorded as 0.188. Moreover, in series [3], the “ISG activity compared with unmodified parental CDN” value is recorded as “higher ISG activity than the unmodified parental CDN”. Besides, the “ISG activity compared with unmodified parental CDN” value in series [4] is “higher ISG activity than the unmodified parental CDN”. For the same molecule, in series [1], the concentration for a half-maximal effect (EC50) came out at 0.14 µM.
Consider `CCCCCCCCCCCCCC(=O)OC(CCCCCCCCCCC)CC(=O)N[C@H](C(=O)N[C@@H](CCCNC(N)=O)C(=O)Nc1ccc(CSP2(=O)OC[C@H]3O[C@@H](n4cnc5c(N)ncnc54)[C@H](F)[C@@H]3OP(=O)(O)OC[C@H]3O[C@@H](n4cnc5c(O)ncnc54)[C@H](F)[C@@H]3O2)cc1)C(C)C` (some centres unmarked) [CL860], for which, in series [2], the “self-organization in lipid-based nanoparticles / particle size” value is given as “can self-organize/assemble in lipid-based nanoparticles; also recorded: the size tends to be smaller, around the size of Small Unilamellar Vesicle”; the “Z Ave (nm)” value is recorded as 33 nm; the PdI worked out at 0.248. The EC50 in series [1] came to 0.009 µM.
As to `CCCCCCCCCCCCCC(=O)OC(CCCCCCCCCCC)CC(=O)N[C@H](C(=O)N[C@@H](CCCNC(N)=O)C(=O)Nc1ccc(CSP2(=O)OC[C@H]3O[C@@H](n4cnc5c(N)ncnc54)[C@H](F)[C@@H]3OP(=O)(S)OC[C@H]3O[C@@H](n4cnc5c(O)ncnc54)[C@H](F)[C@@H]3O2)cc1)C(C)C` (some centres unmarked) [CL861], in series [2], the “self-organization in lipid-based nanoparticles / particle size” value is reported as “can self-organize/assemble in lipid-based nanoparticles; also recorded: the size tends to be smaller, around the size of Small Unilamellar Vesicle”; the “Z Ave (nm)” value is recorded as 36.8 nm; the PdI is listed as 0.183. In addition, the EC50 in series [1] was 0.01 µM.
For `CCCCCCCCCCCCCCCC(=O)N[C@H](C(=O)N[C@@H](C)C(=O)Nc1ccc(CSP2(=O)OC[C@H]3O[C@@H](n4cnc5c(N)ncnc54)[C@H](F)[C@@H]3OP(=O)(S)OC[C@H]3O[C@@H](n4cnc5c(O)ncnc54)[C@H](F)[C@@H]3O2)cc1)C(C)C` (some centres unmarked) [CL863], in series [2], the “Z Ave (nm)” value is recorded as 106.6 nm and the PdI came out at 0.416. In addition, the “ISG activity compared with unmodified parental CDN” value in series [3] is “higher ISG activity than the unmodified parental CDN”. Also, the “ISG activity compared with unmodified parental CDN” value in series [4] was “higher ISG activity than the unmodified parental CDN”. For the same molecule, the EC50 in series [1] amounted to 0.15 µM.
